Entries after “also recorded” stand apart in the source; their conditions may differ.
Assays:
[1] = tested on: MC38 tumor xenografts; test: Treatment of mice bearing MC38 tumor xenografts (Study 3); assay type: in vivo, C57BL/6 mice; conditions: for survival: day to which some mice survived (Kaplan-Meier, FIG. 5B): all untreated mice deceased by day 21
Method: In this study, 6-8 week old female C57BL/6 mice were implanted subcutaneously in the flank with 5×10^5 MC38 cells. Tumors were measured every 2-3 days using a caliper. Body weight was measured every 2-3 days. Dosing initiated when the average tumor volume reached 50 mm^3 with 7 animals assigned to each treatment group. Animals were dosed orally once daily through Day 27 or until tumors reached 2 cm in size.
FIGS. 5A-5B provide data for a fourth set of mice bearing MC38 tumor xenografts. FIG. 5A provides a graph of median tumor volumes for this set of mice. Mice were divided into three groups: (1) control group, who received no treatment (circles); (2) mice who received Compound 26 dosed at 4 mg/kg PO QD (squares); and (3) mice who received Compound 56 dosed at 12 mg/kg PO QD (triangles). […] For example, at day 20, tumor volumes for the untreated mice were between 2000 and 3000 mm^3, while for treated mice had tumor volumes between 1000 and 2000 mm^3.

[2] = tested on: MC38 tumor xenografts; test: Treatment of mice bearing MC38 tumor xenografts (Study 1); assay type: in vivo, C57BL/6 mice
Method: Ten week old female C57BL/6 mice were implanted subcutaneously in the flank with 5×10^5 MC38 cells. Tumors were measured every 2-3 days using a caliper. Body weight was measured every 2-3 days. Dosing initiated on Day (when the average tumor volume reached 50 mm^3. Five animals were assigned to each treatment group. Animals were dosed orally by gavage with Compound 26 for 10 days and were monitored through Day 32 or until tumors reached 2.000 mm^3 in volume.
FIG. 1 provides a graph of mean tumor volumes for this set of mice bearing MC38 tumor xenografts. Mice were divided into three groups: (1) control group, who received no treatment (black circles, solid line); (2) mice who received Compound 26 dosed at 4 mg/kg PO QD (grey triangles, dashed lines); and (3) mice who received Compound 26 dosed at 60 mg/kg PO QD (grey squares, dotted line). In each treatment group, compound 26 was administered once a day for 10 consecutive days, at which time, treatment was ceased.

[3] = target: T1, human ENPP1 enzymatic domain (Homo sapiens, UniProt P22413); test: ENPP1 Enzymatic Inhibition Assay (2′3′-cGAMP substrate, AMP-Glo luminescence); assay type: biochemical; conditions: 1 nM ENPP1, 20 uM 2′3′-cGAMP, 30 minutes at 37° C.
T1 construct: recombinant protein containing the human ENPP1 enzymatic domain; purchased Viva Biotech
T1 sequence (P22413 191-591 limits assumed): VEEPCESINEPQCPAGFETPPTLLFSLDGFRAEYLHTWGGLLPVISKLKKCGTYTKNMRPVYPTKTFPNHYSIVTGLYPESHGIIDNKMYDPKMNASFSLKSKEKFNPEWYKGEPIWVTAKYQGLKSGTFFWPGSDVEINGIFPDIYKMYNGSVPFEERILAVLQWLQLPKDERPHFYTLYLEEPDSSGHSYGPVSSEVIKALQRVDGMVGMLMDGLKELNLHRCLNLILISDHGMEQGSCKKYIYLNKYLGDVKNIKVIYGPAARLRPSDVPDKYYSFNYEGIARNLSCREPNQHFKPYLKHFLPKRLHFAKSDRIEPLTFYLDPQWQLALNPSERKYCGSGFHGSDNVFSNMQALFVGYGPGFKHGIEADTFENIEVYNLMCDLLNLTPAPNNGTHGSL
Method: The inhibition of ENPP1's phosphodiesterase activity were tested in a purified enzymatic assay using 2′3′-cyclic GAMP as a substrate which allowed for the release of cleaved AMP to be monitored using a luminescent assay.
Putative inhibitors were diluted in assay buffer (50 mM Tris pH 8.0, 250 mM NaCl, 0.5 mM CaCl2), 1 uM ZnCl2, 1% DMSO) and pre-incubated for 15 minutes at 37° C. with recombinant protein containing the human ENPP1 enzymatic domain (Viva Biotech). The enzymatic reaction was initiated upon addition of the 2′3′-cGAMP substrate. The final reaction concentrations were 1 nM ENPP1 and 20 uM 2′3′-cGAMP substrate in a 25 uL volume. Inhibitor concentrations ranged from 10 uM to 0.056 nM. The reaction was incubated for 30 minutes at 37° C.
After reacting for 30 minutes, the amount of AMP generated from the cleavage of 2′3′-cGAMP was determined using the Promega AMP-Glo method according to the manufacturer's protocol. First, AMP-Glo reagent 1 was added and incubated with the reaction mix for 1 hour at room temperature. Second, AMP Detection solution was added and the mixture was incubated for an additional hour. The luminescence of the mixture was read on a Perkin Elmer Ensight plate reader.
The maximum and minimum levels of ENPP1 activity were established using no inhibitor and no enzyme controls, respectively. The activity observed using ENPP1 inhibitors was quantified as the percent of activity relative to these controls. IC50 values were calculated using CDD Vault by fitting a sigmoidal variable slope nonlinear regression model to the data.

[4] = tested on: MC38 tumor xenografts; test: Treatment of mice bearing MC38 tumor xenografts (Study 2): tumor volume, survival, body weight; assay type: in vivo, C57BL/6 mice
Method: (§1) In this study, 6-8 week old female C57BL/6 mice were implanted subcutaneously in the flank with 5×10^5 MC38 cells. Tumors were measured every 2-3 days using a caliper. Body weight was measured every 2-3 days. Dosing initiated on Day (when the average tumor volume reached 50 mm^3 with 15 animals assigned to each treatment group. Animals were dosed orally by gavage with Compound 26 (4 mg/kg PO QD) or Compound 56 (either 1 mg/kg PO QD or 12 mg/kg PO QD).
(§2) A subset of 5 animals from each group were collected on day 10 after the initiation of dosing. Tumors were harvested and lysed via sonication. Supernatants were collected, adjusted for total protein, and assayed using a Luminex cytokine and chemokine panel (Invitrogen) and an IFN-β ELISA. The remaining 10 animals in each group were dosed and monitored through Day 27 or until tumors reached 2 cm in size.
FIG. 2A provides a graph of mean tumor volumes for this set of mice bearing MC38 tumor xenografts. Mice were divided into four groups: (1) control group, who received no treatment (black circles, solid line); (2) mice who received Compound 26 dosed at 4 mg/kg PO QD (grey squares, dashed line); (3) mice who received Compound 56 dosed at 12 mg/kg PO QD (grey triangles, dotted line); and (4) mice who received Compound 56 dosed at 1 mg/kg PO QD (empty circles, dotted dashed line).

[5] = tested on: MC38 tumors; test: Intratumoral cytokine levels at day 10 in MC38 tumors (Study 2; Luminex cytokine and chemokine panel, IFN-β ELISA); assay type: in vivo, C57BL/6 mice; conditions: 12 mg/kg QD
Method: as §1, §2
Intratumoral concentrations for each of these inflammatory cytokines are provided in picogram of cytokine per gram of tumor tissue. FIGS. 4B-F each provide data for each of the following: (1) untreated control group (circles); (2) mice treated with 4 mg/kg QD Compound 26 (triangles); (3) mice treated with 12 mg/kg QD […]; and (4) mice treated with […].

SMILES | median tumor volumes compared to the untreated group (FIG. 5A) ([1]; 4 mg/kg PO QD) | survival: day to which some mice survived (Kaplan-Meier, FIG. 5B) ([1]; 4 mg/kg PO QD) [days] | mean tumor volume compared to the control group (FIG. 1) ([2]; 4 mg/kg PO QD for 10 days) | mean tumor volume compared to the control group (FIG. 1) ([2]; 60 mg/kg PO QD for 10 days) | IC50 [3] [nM] | mean tumor volume compared to the untreated group (FIG. 2A) ([4]; 4 mg/kg PO QD) | survival: day to which some mice survived (Kaplan-Meier, FIG. 3A) ([4]; 4 mg/kg PO QD, all untreated mice deceased by day 22) [days] | median intratumoral concentration of eotaxin (FIG. 4F) [5] | median intratumoral concentration of interferon beta (IFN beta) (FIG. 4B) [5] | median intratumoral concentration of interferon γ-induced protein 10 kDa (IP-10) (FIG. 4C) [5] | median intratumoral concentration of macrophage inflammatory protein-1-beta (MIP-1beta) (FIG. 4D) [5] | median intratumoral concentration of monocyte-chemotactic protein 3 (MCP-3) (FIG. 4E) [5] | median tumor volumes compared to the untreated group (FIG. 5A) ([1]; 12 mg/kg PO QD) | survival: day to which some mice survived (Kaplan-Meier, FIG. 5B) ([1]; 12 mg/kg PO QD) [days] | mean tumor volume compared to the untreated group (FIG. 2A) ([4]; 1 mg/kg PO QD) | survival: day to which at least one mouse survived (Kaplan-Meier, FIG. 3A) ([4]; 1 mg/kg PO QD, all untreated mice deceased by day 22) [days] | mean tumor volume compared to the untreated group (FIG. 2A) ([4]; 12 mg/kg PO QD) | survival: day to which at least one mouse survived (Kaplan-Meier, FIG. 3A) ([4]; 12 mg/kg PO QD, all untreated mice deceased by day 22) [days]
COc1ccc2c(Oc3ccc([S@@](=N)(=O)NC[C@@H](C)O)cc3)ccnc2c1 [Compound 26, (S)-N-((R)-2-hydroxypropyl)-4-((7-methoxyquinolin-4-yl)oxy)benzenesulfonimidamide] | significantly lower | 24 | lower | lower | < 10 | smaller | 24 | – | – | – | – | – | – | – | – | – | – | –
COc1ccc2c(Nc3ccc([S@@](=N)(=O)NC[C@@H](C)O)cc3)ccnc2c1 [Compound 56, (S)-N-((R)-2-hydroxypropyl)-4-((7-methoxyquinolin-4-yl)amino)benzenesulfonimidamide] | – | – | – | – | < 10 | – | – | ~15000 pg eotaxin/g of tumor | > 400 pg IFNbeta/g of tumor | 3000-4000 pg IP-10/g of tumor | ~9000 pg MIP-1 beta/g of tumor | 20000-30000 pg MCP-3/g of tumor | significantly lower | ≥ 27 | smaller | > 27 | smaller; also recorded: greatest reduction in tumor volume | > 27
COc1ccc2c(Nc3ccc([S@@](=N)(=O)NC[C@@H](C)OC(C)=O)cc3)ccnc2c1 [Compound 69, (R)-1-(((S)-4-((7-methoxyquinolin-4-yl)amino)phenyl)sulfonoamidimidamido)propan-2-yl acetate] | – | – | – | – | < 10 | – | – | – | – | – | – | – | – | – | – | – | – | –
